Measurements taken from patent US20100120715A1, “BETA-LACTAMASE INHIBITORS” (priority 2007, published 2010).
Where two headings read alike, the source gives them in different places.

Key:
Class A ESBL SHV-5 = target: T1, Class A ESBL SHV-5 (Klebsiella pneumoniae, UniProt P0A3M1); type: biochemical, E. coli; conditions: nitrocefin 100 μM, PBS pH 7.0, read-out: SHV-5 IC50 Range
T1 construct: made in house; host or cells: E. coli BL21(DE3) for purified enzyme; E. coli cells containing SHV-5 for extracts
T1 sequence (P0A3M1 22-286): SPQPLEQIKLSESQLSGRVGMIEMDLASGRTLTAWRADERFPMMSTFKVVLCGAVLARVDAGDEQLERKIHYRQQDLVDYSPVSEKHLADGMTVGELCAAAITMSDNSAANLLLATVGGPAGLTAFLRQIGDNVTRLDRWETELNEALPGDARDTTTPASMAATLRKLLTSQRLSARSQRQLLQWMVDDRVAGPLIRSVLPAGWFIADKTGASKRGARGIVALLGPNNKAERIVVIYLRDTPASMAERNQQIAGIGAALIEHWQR

Class A ESBL CTXM-15 = target: T2, Class A ESBL CTXM-15 (Escherichia coli, UniProt Q9EXV5); test: β-lactamase enzyme inhibition (nitrocefin hydrolysis), CTXM-15; type: biochemical; conditions: purified enzyme; nitrocefin 100 μM, PBS pH 7.0; read-out: CTXM-15 IC50 Range
T2 construct: made in house; host or cells: E. coli BL21(DE3)
T2 sequence (Q9EXV5 entry or part of it): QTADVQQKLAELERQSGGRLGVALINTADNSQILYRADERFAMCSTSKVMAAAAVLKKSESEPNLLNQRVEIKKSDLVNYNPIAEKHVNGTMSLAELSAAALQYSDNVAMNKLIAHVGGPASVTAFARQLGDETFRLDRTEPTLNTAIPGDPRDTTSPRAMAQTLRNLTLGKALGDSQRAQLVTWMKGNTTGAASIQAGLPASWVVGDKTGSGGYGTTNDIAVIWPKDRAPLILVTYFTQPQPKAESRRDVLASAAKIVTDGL
In short: (§1)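 Native untagged enzymes were expressed in E. coli BL21(DE3) and purified by cation exchange and gel filtration. Compound series (100–0.005 μM in PBS pH 7.0, before addition of an equal enzyme volume) were preincubated with enzyme 10 min at 37°C. Nitrocefin (100 μM final) hydrolysis was read kinetically at 486 nm for 10 min, and IC50 was taken as 50% reduction of initial rate versus no-inhibitor wells.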

[1] = tested on: K. pneumoniae expressing the Class A carbapenemase KPC-2; test: microbe, parasite or virus in culture; conditions: in the presence of fixed 8 μg/mL Ceftazidime
[2] = tested on: E. coli expressing the Class A ESBL SHV-5; test: microbe, parasite or virus in culture; type: cell-based; conditions: in the presence of fixed 8 μg/mL Ceftazidime
Source text: (§2) To determine the ability of test compounds to potentiate the inhibition of the growth of bacterial strains producing beta-lactamase enzymes, classic cell based screening assays were employed. Four bacteria strains producing beta-lactamase enzymes were used: K. pneumoniae expressing the Class A Extended Spectrum Beta-Lactamase (ESBL) CTX-M-15, E. coli expressing the Class A ESBL SHV-5, E. cloacae expressing the Class C P99+, and K. pneumoniae expressing the Class A carbapenemase KPC-2. In order to evaluate the ability of test compounds to inhibit beta-lactamase activity, Applicants used a modification of the broth microdilution assay. The assay was conducted in Cation Adjusted Mueller Hinton Broth (CAMHB, BD # 212322, BD Diagnostic Systems, Sparks, Md.). Bacteria strains were grown for 3-5 hours in CAMBH broth. All four strains were grown in presence of 50 μg/mL ampicillin to ensure resistance is maintained. In the meantime, test compounds were diluted in DMSO to a 0.1 mg/mL stock. The compounds were added to a microtiter plate and were diluted in 2-fold serial dilutions in CAMHB in a final concentration range of 8 μg/mL to 0.015 μg/ml. An overlay of CAMHB containing a cephalosporin was added to the compounds at a final static concentration of 8 μg/ml. […] Each of these compound plates are made in quadruplicate, one for each bacteria strain. In addition to the titration of test compounds the MICs of a panel of cephalosporins is also tested to ensure the strains are behaving consistently from test to test. Once the test compound and cephalosporin are added the plates can be inoculated. Inocula are conducted according to CLSI broth microdilution method. After inoculation the plates are incubated for 16-20 hours at 37° C. then the Minimal Inhibitory Concentration (MIC) of the test compound is determined visually.

[3] = target: T3, Class A carbapenemase KPC-2 (Klebsiella pneumoniae, UniProt Q9F663); test: β-lactamase enzyme inhibition (nitrocefin hydrolysis), KPC-2; type: biochemical; conditions: purified enzyme; nitrocefin 100 μM, PBS pH 7.0; read-out: KPC-2 IC50 Range
T3 construct: made in house; host or cells: E. coli BL21(DE3)
T3 sequence (Q9F663 25-293 limits assumed): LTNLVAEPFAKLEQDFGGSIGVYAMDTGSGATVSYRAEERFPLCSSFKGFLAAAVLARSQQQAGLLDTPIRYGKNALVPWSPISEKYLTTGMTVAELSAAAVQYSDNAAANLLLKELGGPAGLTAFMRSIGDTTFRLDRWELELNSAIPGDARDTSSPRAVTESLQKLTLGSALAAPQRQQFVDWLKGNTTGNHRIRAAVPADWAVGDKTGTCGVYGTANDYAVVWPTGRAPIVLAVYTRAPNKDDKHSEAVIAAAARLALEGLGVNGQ
In short: as §1

Class C P99 AmpC = target: T4, Class C P99 AmpC (Enterobacter cloacae, UniProt P05364); type: biochemical; conditions: purified enzyme; nitrocefin 100 μM, PBS pH 7.0; read-out: P99 AmpC IC50 Range
T4 construct: made in house; host or cells: E. coli BL21(DE3)
T4 sequence (P05364 21-381): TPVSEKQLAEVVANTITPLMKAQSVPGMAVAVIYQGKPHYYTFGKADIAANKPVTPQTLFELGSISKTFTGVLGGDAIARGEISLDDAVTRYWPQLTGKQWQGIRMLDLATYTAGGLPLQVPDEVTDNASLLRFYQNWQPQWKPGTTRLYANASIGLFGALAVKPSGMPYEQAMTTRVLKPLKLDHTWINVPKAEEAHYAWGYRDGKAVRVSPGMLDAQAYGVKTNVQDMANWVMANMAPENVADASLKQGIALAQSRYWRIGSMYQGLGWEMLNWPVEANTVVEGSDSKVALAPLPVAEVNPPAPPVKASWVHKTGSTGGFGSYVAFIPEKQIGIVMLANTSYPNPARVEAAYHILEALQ
In short: as §1

[4] = tested on: K. pneumoniae expressing the Class A ESBL CTX-M-15; test: microbe, parasite or virus in culture; type: cell-based; conditions: in the presence of fixed 8 μg/mL Ceftazidime
[5] = tested on: E. cloacae expressing the Class C P99+ AmpC; test: microbe, parasite or virus in culture; type: cell-based; conditions: in the presence of fixed 8 μg/mL Ceftazidime
Source text: as §2

[6] = purified beta-lactamase enzyme (Examples 1 and 31-64)
[7] = cellular extracts of E. coli containing SHV-5 (Examples 2-30)

Row | Structure (SMILES) | IC50 (Class A ESBL SHV-5; [6]) [nM] | IC50 (Class A ESBL CTXM-15) [nM] | MIC of example compound, K. pneumoniae KPC-2 + 8 μg/mL CAZ [1] | MIC of example compound, E. coli SHV-5 + 8 μg/mL CAZ [2] | IC50 [3] [nM] | IC50 (Class C P99 AmpC) [nM] | MIC of example compound, K. pneumoniae CTX-M-15 + 8 μg/mL CAZ [4] | IC50 (Class A ESBL SHV-5; [7]) [nM] | MIC of example compound, E. cloacae P99 AmpC + 8 μg/mL CAZ [5]
1 | O=C(Cc1cccs1)N[C@@H](Cc1cccc(C(=O)O)c1O)B(O)O [Example 1, (1R)-1-(2-thiophene-2-yl-acetylamino)-2-(2-hydroxy-3-carboxyphenyl)ethyl-1-boronic acid] | < 10 | < 10 | C (C represents an MIC of <1 μg/mL) | C (C represents an MIC of <1 μg/mL) | < 10 | < 10 | C (C represents an MIC of <1 μg/mL) |  | 
2 | O=C(Cc1cccs1)N[C@@H](Cc1ccc(C(=O)O)cc1O)B(O)O [Example 2, (1R)-1-(2-thiophene-2-yl-acetylamino)-2-(2-hydroxy-4-carboxyphenyl)ethyl-1-boronic acid] |  | 100 to 1000 |  |  |  | 100 to 1000 |  | 10 to 100 | A (A represents an MIC >8 μg/mL)
3 | O=C(O)COc1cccc(CC(=O)N[C@@H](Cc2cccc(C(=O)O)c2O)B(O)O)c1 [Example 7, (1R)-1-[3-(carboxymethoxy)-phenyl]acetylamino-(3-carboxy-2-hydroxy)benzyl-methylboronic acid] |  | < 10 | C (C represents an MIC of <1 μg/mL) | C (C represents an MIC of <1 μg/mL) |  | < 10 | C (C represents an MIC of <1 μg/mL) | < 10 | 
4 | O=C(Cc1cc(Br)cs1)N[C@@H](Cc1cccc(C(=O)O)c1O)B(O)O [Example 9, (1R)-1-(2-(4-bromo-thiophen-2-nyl)acetylamino)-2-(2-hydroxy-3-carboxyphenyl)ethyl-1-boronic acid] |  | < 10 | C (C represents an MIC of <1 μg/mL) | C (C represents an MIC of <1 μg/mL) | 10 to 100 | < 10 | C (C represents an MIC of <1 μg/mL) | < 10 | 
5 | O=C(CO)N[C@@H](Cc1cccc(C(=O)O)c1O)B(O)O [Example 19, (1R)-1-Hydroxyacetylamino-1-(3-carboxy-2-hydroxy)benzyl-methyl boronic acid] |  | 10 to 100 | C (C represents an MIC of <1 μg/mL) | A (A represents an MIC >8 μg/mL) | 10 to 100 | 100 to 1000 | C (C represents an MIC of <1 μg/mL) | 100 to 1000 | 
6 | CCCCCC(=O)N[C@@H](Cc1cccc(C(=O)O)c1O)B(O)O [Example 21, (1R)-1-Hexanoylamino-(3-carboxy-2-hydroxy)benzyl-methylboronic acid] |  | < 10 | C (C represents an MIC of <1 μg/mL) | C (C represents an MIC of <1 μg/mL) | < 10 | < 10 | C (C represents an MIC of <1 μg/mL) | < 10 | 
7 | COc1cccc(C(=O)N[C@@H](Cc2cccc(C(=O)O)c2O)B(O)O)c1 [Example 29, (1R)-1-(3-methoxybenzoylamino)-2-(2-hydroxy-3-carboxyphenyl)ethyl-1-boronic acid] |  | < 10 | C (C represents an MIC of <1 μg/mL) | C (C represents an MIC of <1 μg/mL) | < 10 | < 10 | C (C represents an MIC of <1 μg/mL) | 10 to 100 | 
8 | NCCC(=O)N[C@@H](Cc1cccc(C(=O)O)c1O)B(O)O.O=CO [Example 38, (1R)-1-(3-aminopropanoylamino)-2-(2-hydroxy-3-carboxyphenyl)ethyl-1-boronic acid formate salt] | > 1000 | 100 to 1000 | C (C represents an MIC of <1 μg/mL) | A (A represents an MIC >8 μg/mL) | 100 to 1000 | 100 to 1000 | A (A represents an MIC >8 μg/mL) |  | 
9 | NCc1cccc(C(=O)N[C@@H](Cc2cccc(C(=O)O)c2O)B(O)O)c1.O=CO [Example 42, (1R)-1-(3-aminomethyl)-benzoylamino-1-(3-carboxy-2-hydroxy)benzyl-methyl boronic acid formate] | 100 to 1000 | < 10 | C (C represents an MIC of <1 μg/mL) |  | 10 to 100 | < 10 |  |  | C (C represents an MIC of <1 μg/mL)
10 | O=C(O)c1cccc(C[C@H](NC(=O)c2c(Cl)cccc2Cl)B(O)O)c1O [Example 43, (1R)-1-(2,6-Dichlorobenzoyl)-amino-1-(3-carboxy-2-hydroxy)benzyl-methylboronic acid] | > 1000 | 10 to 100 | A (A represents an MIC >8 μg/mL) | A (A represents an MIC >8 μg/mL) | 10 to 100 | < 10 | A (A represents an MIC >8 μg/mL) |  | 
11 | Cn1nc(-c2ccccc2)cc1C(=O)N[C@@H](Cc1cccc(C(=O)O)c1O)B(O)O [Example 44, (1R)-1-(1-methyl-3-phenyl-1H-pyrazole-5-carbonyl-amino)-2-(2-hydroxy-3-carboxyphenyl)ethyl-1-boronic acid] | < 10 | < 10 |  | A (A represents an MIC >8 μg/mL) | 10 to 100 | < 10 | A (A represents an MIC >8 μg/mL) |  | 
12 | Cc1nc(-c2cccc(C(=O)N[C@@H](Cc3cccc(C(=O)O)c3O)B(O)O)c2)no1 [Example 47, (1R)-1-[3-(5-methyl-[1,2,4]oxadiazol-3-yl)-benzoyl]-amino-1-(3-carboxy-2-hydroxy)benzyl-methylboronic acid] | 10 to 100 | < 10 |  | A (A represents an MIC >8 μg/mL) | < 10 | < 10 | A (A represents an MIC >8 μg/mL) |  | 
13 | O=C(Cc1cccnc1)N[C@@H](Cc1cccc(C(=O)O)c1O)B(O)O.O=CO [Example 59, (1R)-1-(3-Pyridylacetylamino)-2-(2-hydroxy-3-carboxyphenyl)ethyl-1-boronic acid formate salt] | < 10 | < 10 | C (C represents an MIC of <1 μg/mL) | C (C represents an MIC of <1 μg/mL) | < 10 | < 10 | C (C represents an MIC of <1 μg/mL) |  | 
14 | O=C(O)c1cccc(C[C@H](NC(=O)[C@@H]2CCCN2)B(O)O)c1O.O=CO [Example 64, (1R),(2′S)-1-(pyrrolidine-2-carbonylamino)-2-(2-hydroxy-3-carboxyphenyl)ethyl-1-boronic acid formate] | > 1000 | 100 to 1000 | C (C represents an MIC of <1 μg/mL) | A (A represents an MIC >8 μg/mL) | 100 to 1000 | 10 to 100 | A (A represents an MIC >8 μg/mL) |  | 
